Holding throughout (assay type): functional
One assay is filed under the species Rattus norvegicus. In words: Maximum velocity was determined for rat liver DT diaphorase substrate activity.
The subject of assay [1] is Nucleic Acid. Put plainly: Compound tested for its selectivity for incorporation into poly(dA) DNA base pairs.
For assay [2], the system named is Nucleic Acid. In words: Compound tested for its selectivity for incorporation into poly(dA-dT) DNA base pairs.
For assay [3], the system named is Nucleic Acid. In words: Compound tested for its selectivity for incorporation into poly(dG) DNA base pairs.

Each structure is given as a SMILES string.

Consider `CC(=O)NC1=C(C)C(=O)c2c(nc3n2CC[C@@H]3OC(C)=O)C1=O`, for which the Vmax (usually the rate approached at saturating substrate) in the assay listed under Rattus norvegicus turned out to be 20.4 nM/s.

Turning to `CC(=O)NC1=C(C)C(=O)c2c(nc3n2CC[C@H]3OC(C)=O)C1=O`, in the assay filed under Rattus norvegicus, the Vmax turned out to be 14.6 nM/s.

As for `CC(=O)N[C@H]1CCn2c1nc1c2C(=O)C(C)=C(N2CC2)C1=O`, the Selectivity with Nucleic Acid [1] worked out at 32.7%; in the assay with Nucleic Acid [2] it was 38%; with Nucleic Acid [3] it was 12.1%. The Vmax in the assay listed under Rattus norvegicus is 2.2 nM/s.

`CCCCC1=C(NC(C)=O)C(=O)c2nc3n(c2C1=O)CCC3`: the Vmax in the assay listed under Rattus norvegicus was found to be 18.1 nM/s.

On to `CCCCC1=C(NC(C)=O)C(=O)c2nc3n(c2C1=O)CCC3OC(C)=O` (centres undefined), for which the Vmax in the assay listed under Rattus norvegicus is 15.4 nM/s.

Consider `COCC(=O)O[C@@H]1CCn2c1nc1c2C(=O)C(C)=C(NC(C)=O)C1=O`, for which the Vmax in the assay filed under Rattus norvegicus is 16.7 nM/s.

For `COCC(=O)O[C@H]1CCn2c1nc1c2C(=O)C(C)=C(NC(C)=O)C1=O`, in the assay filed under Rattus norvegicus, the Vmax was found to be 28.2 nM/s.

Regarding `CC(=O)NC1=C(C)C(=O)c2c(nc3n2CCC3OC(=O)c2ccccc2)C1=O` (racemic), the Vmax in the assay listed under Rattus norvegicus turned out to be 27.9 nM/s.

With `CC(=O)NC1=C(C)C(=O)c2c(nc3n2CCC3OC(C)=O)C1=O` (racemic), the maximum rate (Vmax) in the assay filed under Rattus norvegicus was 38.6 nM/s.

For the compound `CC(=O)NC1CCn2c1nc1c2C(=O)C(C)=C(N2CC2)C1=O` (racemic), the Selectivity is 41.5% in the assay on Nucleic Acid [1], 28% with Nucleic Acid [2] and 8.2% with Nucleic Acid [3]. Moreover, the Vmax in the assay filed under Rattus norvegicus was determined as 8.3 nM/s.

Regarding `CC(=O)OC1CCn2c1nc1c2C(=O)C(C)=C(N2CC2)C1=O` (racemic), the Vmax in the assay filed under Rattus norvegicus was found to be 66.5 nM/s.

For `CCCC(=O)OC1CCn2c1nc1c2C(=O)C(C)=C(NC(C)=O)C1=O` (racemic), in the assay filed under Rattus norvegicus, the Vmax was determined as 42.3 nM/s.

Regarding `CCCCC1=C(N2CC2)C(=O)c2nc3n(c2C1=O)CCC3OC(C)=O` (racemic), in the assay listed under Rattus norvegicus, the Vmax is 8.5 nM/s.

In the case of `COCC(=O)OC1CCn2c1nc1c2C(=O)C(C)=C(NC(C)=O)C1=O` (racemic), the Vmax in the assay filed under Rattus norvegicus turned out to be 9.8 nM/s.

`CC(=O)O[C@H]1CCn2c1nc1c2C(=O)C(C)=C(N2CC2)C1=O` (stereo in doubt; (+)): the Selectivity with Nucleic Acid [1] stood at 5.9%. In the assay filed under Rattus norvegicus, the Vmax is 83.4 nM/s.

In the assay on Nucleic Acid [1], `CC(=O)O[C@H]1CCn2c1nc1c2C(=O)C(C)=C(N2CC2)C1=O` (stereo in doubt; (-)) had a Selectivity of 8.5%. For the same compound, the Vmax in the assay listed under Rattus norvegicus is 62.6 nM/s.

For the origin of these results see ChEMBL document CHEMBL1130000, “Studies of pyrrolo[1,2-alpha]benzimidazolequinone DT-diaphorase substrate activity, topoisomerase II inhibition activity, and DNA reductive alkylation” (J Med Chem, 1997).
